≈ marks a conversion by molar mass, not a printed value.
Columns and labels:
Assay in all cases: Minimum Inhibitory Concentration (MIC) by serial dilution in nutrient agar
Format in all cases: cell-based
P. aeruginosa NCTC 10662 = settings: Pseudomonas aeruginosa, NCTC10662, 10^4 colony forming units, overnight at 37° C.
Experimental: (§1) Minimum Inhibitory Concentration (MIC) values of compounds of the invention against E coli DC 0, K pneumoniae T767, and P aeruginosa NCTC 10662 were determined by serial dilution in a nutrient agar (from Oxoid Ltd., Basingstoke, England). The plates were inoculated with 10^4 colony forming units and incubated overnight at 37° C. The MIC values recorded in Table 1 were the lowest concentration of antibiotic to inhibit growth. Comparative data for 7α-formamido-3-(pyridiniummethyl)-7β-(thien-2-yl-acetamido)-ceph-3-em-4-carboxylate (Compound A), disclosed in European Patent Application No. 82303821.1 (Publication Number 0 071 395), are also given.

K. pneumoniae T767 = settings: Klebsiella pneumoniae, 10^4 colony forming units, overnight at 37° C.
Experimental: as §1

E. coli DC 0 = settings: Escherichia coli, DC0, 10^4 colony forming units, overnight at 37° C.
Experimental: as §1

Row | Structure (SMILES) | MIC (P. aeruginosa NCTC 10662) [µg/mL] | MIC (K. pneumoniae T767) [µg/mL] | MIC (E. coli DC 0) [µg/mL]
1 | O=CN[C@@]1(NC(=O)Cc2cccs2)C(=O)N2C(C(=O)[O-])=C(C[n+]3ccccc3)CS[C@@H]21 [Compound A, 7α-formamido-3-(pyridiniummethyl)-7β-(thien-2-yl-acetamido)-ceph-3-em-4-carboxylate, reference compound] | 50 (≈ 109 µM) | 25 (≈ 54.5 µM) | 25 (≈ 54.5 µM)
2 | CCN1CCN(C(=O)NC(C(=O)NC2(NC=O)C(=O)N3C(C(=O)[O-])=C(C[n+]4cccc5c4CCC5)CSC32)c2ccc(O)c(O)c2)C(=O)C1=O [Example 3, 3-(2,3-Cyclopentenopyridinium)methyl-7β-[D-2-(3,4-dihydroxyphenyl)-2-[(4-ethyl-2,3-dioxopiperazin-1-yl)carbonylamino]acetamido]-7α-formamido-ceph-3-em-4-carboxylate] | 1 (≈ 1.41 µM) | 0.12 (≈ 0.17 µM) | 0.12 (≈ 0.17 µM)
3 | CCN1CCN(C(=O)N[C@@H](C(=O)N[C@]2(NC=O)C(=O)N3C(C(=O)[O-])=C(C[n+]4ccc(C5CC5)cc4)CS[C@@H]32)c2ccccc2)C(=O)C1=O [Example 29, 3-(4-Cyclopropylpyridinium)methyl-7β-[D-2-[(4-ethyl-2,3-dioxopiperazin-1-yl)carbonylamino]-2-phenylacetamido]-7α-formamido-ceph-3-em-4-carboxylate] | 8 (≈ 11.8 µM) | 1 (≈ 1.48 µM) | 0.5 (≈ 0.74 µM)

From US4940702A, “Cephem compounds” (Beecham Group p.l.c., priority 1985, dated 1990)
